Publication PMC6594753, “Cystic fibrosis drug ivacaftor stimulates CFTR channels at picomolar concentrations” (eLife, 2019)
Converted amounts (≈) assume the structure as drawn. “And” between values parts separate entries of the source, which are not always exact repeats. Equal values may be shown once. Read-outs that look alike come from different tables or passages of the source.

Experiment: Determination of Vx-770 solubility profile (incremental solvent addition; saturated saline, 1-octanol extraction, spectrophotometry at 311 nm)
Format: physicochemical
Conditions: for solubility at 24 h: aqueous saline (standard bath solution)
Description: We reasoned that some of the reported controversies on Vx-770 effects might be explained by the use of highly supersaturated concentrations of the drug in all published studies, and set out to determine its true solubility profile. Starting from crystalline Vx-770 (Selleck Chemicals), solubilities (S) of the drug in various organic solvents could be readily determined by adding incremental small volumes of solvent until all crystals had been dissolved (Table 1). We found Vx-770 extremely soluble in anhydrous dimethyl sulfoxide (DMSO) (S ~ 0.77 M), and reasonably soluble in 1-octanol (S ~ 3.9 mM) and ethanol (S ~ 3.1 mM). […] To generate an aqueous solution exactly saturated with Vx-770, a small aliquot of crystals was added to an aqueous saline (pH = 7.1) and, after vigorous shaking for 24 hr, visible crystals were removed by repeated filtering and microcrystals sedimented by centrifugation (Materials and methods). The resulting supernatant (our ‘1x saturated’ stock solution) was then used both for determination of Vx-770 solubility (Figure 1b–c), and for functional experiments (Figures 2–5). […] Repeated extraction of the aqueous stock with 1-octanol yielded a flat spectrum ([…], green spectrum, ‘2nd extract’), confirming that all Vx-770 had been efficiently extracted in the first round.
Crystalline Vx-770 (purity 99.58% by HPLC) was purchased from Selleck Chemicals (Houston, TX, USA). Solubilities (S) at 25°C in anhydrous dimethyl sulfoxide (DMSO) (S ~ 0.77 M), 1-octanol (S ~ 3.9 mM), ethanol (S ~ 3.1 mM), octane (S ~ 2.6 mM), and pentane (S ~ 18 μM) were determined by weighing out a small amount (1–2 mg) of crystals on an analytical balance (Kern ABJ), and adding incremental small volumes of solvent, followed by mixing, until all crystals had been dissolved.
To obtain an aqueous solution (pH = 7.1) exactly saturated with Vx-770 (our ‘1x saturated’ stock), a small aliquot of Vx-770 crystals (~0.1 mg) was added to 250 ml of our standard bath solution (in mM: 134 NMDG-Cl, 2 MgCl2, 5 HEPES, 0.5 EGTA, pH = 7.1 with NMDG), and the solution was shaken for 24 hr at 25°C at 200 RPM (New Brunswick Excella E24). Remaining, clearly visible, macrocrystals were removed by filtering the solution twice through an 0.22 μm pore size filter (Millipore Durapore Steritop + Stericup, Merck KGaA, Darmstadt, Germany). To sediment invisible microcrystals, the filtrate was centrifuged at 7200 RCF for 1 hr in 50 ml conical tubes, and the supernatant carefully removed, leaving the last ~1 ml behind. The resulting cleared filtrate was stored and used as a stock solution for all subsequent studies.
The concentration of Vx-770 in the 1x saturated stock was determined by spectrophotometry (NanoPhotometer P300, Implen GmbH). […] To obtain a calibration curve, Vx-770 (from a commercial 10 mM stock dissolved in DMSO, purchased from Selleck Chemicals) was diluted into 1-octanol (saturated with water) to final concentrations of 1, 2, 4, 8, and 16 μM. Absorption spectra were measured in a 1 ml quartz cuvette against 1-octanol (saturated with water) as a blank (Figure 1b, blue spectra). To extract Vx-770 from the 1x saturated aqueous stock, two 15 ml conical tubes, each containing 14 ml of the 1x aqueous stock plus 0.7 ml 1-octanol, were vortexed for 1 min, and then centrifuged at 7200 RCF for 30 min. Approximately 2 × 0.6 ml of the 1-octanol phase was recovered, pooled, and its absorption spectrum measured in a 1 ml quartz cuvette against 1-octanol (saturated with water) as a blank (Figure 1b, red spectrum). To extract the remaining aqueous phase for a second time, the remnants of the 1-octanol phase were carefully discarded from both conical tubes, and 12.5 ml of the remaining aqueous phase (removed by inserting the pipette tip well below the surface) was transferred into two clean conical tubes. The extraction was then repeated using 2 × 0.625 ml 1-octanol, from which 2x ~ 0.5 ml was recovered, pooled, and assayed for optical density (Figure 1b, green spectrum). […]

solubility (1-octanol, 25 °C, organic solvent or mixture, thermodynamic from solid, 1-octanol, 25°C, read-out: S (solubility)): 3900 µM (≈ 1530 µg/mL)
aqueous solubility lower than reported / generally believed (25°C): ~ 200 fold
aqueous solubility Saq (25°C, pH = 7.1, aqueous saline): ~ 62 nM and ~ 60 nM
solubility (anhydrous DMSO, 25 °C, organic solvent or mixture, thermodynamic from solid, DMSO, 25°C, read-out: S (solubility)): 770000 µM (≈ 302000 µg/mL)
solubility at 24 h (25 °C, pH 7.1, thermodynamic from solid, water (pH=7.1), aqueous saline, 25°C, read-out: S (solubility)): 0.062 µM (≈ 0.0243 µg/mL)
solubility at 24 h (pH 7.1, 25°C, over pH 7.1 and 7.4, read-out: aqueous solubility estimate): 0.05 to 0.062 µM (≈ 0.0196 to 0.0243 µg/mL)
solubility at 24 h (pH 7.1, 25°C, pH = 7.1, aqueous saline, read-out: aqueous solubility Saq): 0.06 µM (≈ 0.0235 µg/mL)
solubility (ethanol, 25 °C, organic solvent or mixture, thermodynamic from solid, ethanol, 25°C, read-out: S (solubility)): 3100 µM (≈ 1220 µg/mL)
pKa (inferred from solubility at pH 7.4 vs 7.1, read-out: strongest acidic pKa): > 7.4
solubility (octane, 25 °C, organic solvent or mixture, thermodynamic from solid, octane, 25°C, read-out: S (solubility)): 2600 µM (≈ 1020 µg/mL)
solubility (octane, 25°C, read-out: S (solubility)): ~2600 µM (≈ 1020 µg/mL)
aqueous solubility at 37°C compared to that at 25°C (pH = 7.1, higher at 37°C): ~ 2 fold
solubility (pentane, 25 °C, organic solvent or mixture, thermodynamic from solid, pentane, 25°C, read-out: S (solubility)): 18 µM (≈ 7.06 µg/mL)
solubility (pentane, 25°C, read-out: S (solubility)): ~18 µM (≈ 7.06 µg/mL)
SMILES: CC(C)(C)c1cc(C(C)(C)C)c(NC(=O)c2c[nH]c3ccccc3c2=O)cc1O [Vx-770, ivacaftor]
